According to PubChem BioAssay (NCI):
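Assay format: 96-well plates, 48-hour exposure. Here, GI50 denotes the concentration required for 50% inhibition of growth. Definition used: TGI = concentration required for complete inhibition of growth.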

Legend:
Assay in all cases: NCI tumour cell line growth inhibition, 48 h
[1] = tested on: 786-0 renal
[2] = tested on: A498 renal
[3] = tested on: A549 NSCLC
[4] = tested on: ACHN renal
[5] = tested on: BT-549 breast
[6] = tested on: CAKI-1 renal
[7] = tested on: CCRF-CEM leukemia
[8] = tested on: COLO 205 colon
[9] = tested on: DU-145 prostate
[10] = tested on: EKVX NSCLC
[11] = tested on: HCC-2998 colon
[12] = tested on: HCT-116 colon
[13] = tested on: HCT-15 colon
[14] = tested on: HL-60(TB) leukemia
[15] = tested on: HOP-62 NSCLC
[16] = tested on: HOP-92 NSCLC
[17] = tested on: HS 578T breast
[18] = tested on: HT29 colon
[19] = tested on: IGROV1 ovarian
[20] = tested on: K-562 leukemia
[21] = tested on: KM12 colon
[22] = tested on: LOX IMVI melanoma
[23] = tested on: M14 melanoma
[24] = tested on: MALME-3M melanoma
[25] = tested on: MCF7 breast
[26] = tested on: MDA-MB-231 breast
[27] = tested on: MDA-MB-435
[28] = tested on: MOLT-4 leukemia
[29] = tested on: NCI-H226 lung
[30] = tested on: NCI-H23 lung
[31] = tested on: NCI-H460 lung
[32] = tested on: NCI-H522 lung
[33] = tested on: NCI/ADR-RES ovarian
[34] = tested on: OVCAR-3 ovarian
[35] = tested on: OVCAR-4 ovarian
[36] = tested on: OVCAR-5 ovarian
[37] = tested on: OVCAR-8 ovarian
[38] = tested on: PC-3 prostate
[39] = tested on: RPMI-8226 leukemia
[40] = tested on: RXF 393 renal
[41] = tested on: SF-268 CNS
[42] = tested on: SF-295 CNS
[43] = tested on: SF-539 CNS
[44] = tested on: SK-MEL-2 melanoma
[45] = tested on: SK-MEL-28 melanoma
[46] = tested on: SK-MEL-5 melanoma
[47] = tested on: SN12C renal
[48] = tested on: SNB-19 CNS
[49] = tested on: SNB-75 CNS
[50] = tested on: SR leukemia
[51] = tested on: SW-620 colon
[52] = tested on: T-47D breast
[53] = tested on: TK-10 renal
[54] = tested on: U251 CNS
[55] = tested on: UACC-257 melanoma
[56] = tested on: UACC-62 melanoma
[57] = tested on: UO-31 renal

For `C=CC(=O)Nc1cc2c(Nc3ccc(OCc4ccccn4)c(Cl)c3)ncnc2cc1OCCN1CCOCC1`, the GI50 [1] was 1.7 µM, the TGI [1] was > 83.3 µM and the GI50 [2] was 1.48 µM. For the same compound, the TGI [2] was 7.23 µM, the GI50 [3] was 6.4 µM and the TGI [3] was > 100 µM. The GI50 [4] was 0.201 µM, the TGI [4] was > 100 µM and the GI50 [5] was 8.86 µM. It also gave a TGI [5] of 37.4 µM, a GI50 [6] of 1.86 µM and a TGI [6] of 19.7 µM. For the same compound, the GI50 [7] was 2.98 µM, the TGI [7] was > 100 µM and the GI50 [8] was 6.19 µM. For the same compound, the TGI [8] was > 100 µM, the GI50 [9] was 0.502 µM and the TGI [9] was > 100 µM. The GI50 [10] was 0.775 µM, the TGI [10] was > 73.2 µM and the GI50 [11] was 2.2 µM. For the same compound, the TGI [11] was 11.1 µM, the GI50 [12] was 2.99 µM and the TGI [12] was 14.5 µM. For the same compound, the GI50 [13] was 2.49 µM, the TGI [13] was 14.9 µM and the GI50 [14] was 2.58 µM. For the same compound, the TGI [14] was 22.5 µM, the GI50 [15] was 3.2 µM and the TGI [15] was > 100 µM. It also gave a GI50 [16] of 1.02 µM, a TGI [16] of 9.06 µM and a GI50 [17] of 2.01 µM. The TGI [17] was > 100 µM, the GI50 [18] was 4.04 µM and the TGI [18] was > 100 µM. For the same compound, the GI50 [19] was 0.125 µM, the TGI [19] was 4.01 µM and the GI50 [20] was 2.79 µM. The TGI [20] was > 100 µM, the GI50 [21] was 5.04 µM and the TGI [21] was > 100 µM. It also gave a GI50 [22] of 1.81 µM, a TGI [22] of 5.83 µM and a GI50 [23] of 4.18 µM. The TGI [23] was 19.6 µM, the GI50 [24] was 11.2 µM and the TGI [24] was 42.1 µM. For the same compound, the TGI [25] was > 100 µM, the GI50 [26] was 2.17 µM and the TGI [26] was 34.2 µM. The GI50 [27] was 5.94 µM, the TGI [27] was > 86.5 µM and the GI50 [28] was 3.02 µM. The TGI [28] was > 85.1 µM, the GI50 [29] was 6.56 µM and the TGI [29] was > 83.6 µM. The GI50 [30] was 5.24 µM, the TGI [30] was 20 µM and the GI50 [31] was 4.28 µM. The TGI [31] was > 100 µM, the GI50 [32] was 0.366 µM and the TGI [32] was 22.6 µM. The GI50 [33] was 3.77 µM, the TGI [33] was > 100 µM and the GI50 [34] was 1.16 µM. The TGI [34] was 29.3 µM, the GI50 [35] was 5.9 µM and the TGI [35] was > 100 µM. The GI50 [36] was 15.6 µM, the TGI [36] was > 100 µM and the GI50 [37] was 5.26 µM. For the same compound, the TGI [37] was > 100 µM, the GI50 [38] was 4.28 µM and the TGI [38] was > 100 µM. The GI50 [39] was 2.15 µM, the TGI [39] was > 27.6 µM and the GI50 [40] was 0.784 µM. For the same compound, the TGI [40] was 3.8 µM, the GI50 [41] was 2.87 µM and the TGI [41] was > 65.9 µM. For the same compound, the GI50 [42] was 4.87 µM, the TGI [42] was > 100 µM and the GI50 [43] was 2.63 µM. The TGI [43] was > 100 µM, the GI50 [44] was 6.11 µM and the TGI [44] was 37.5 µM. It also gave a GI50 [45] of 5.11 µM, a TGI [45] of 19.3 µM and a GI50 [46] of 3.8 µM. The TGI [46] was 14.3 µM, the GI50 [47] was 1.49 µM and the TGI [47] was > 100 µM. For the same compound, the GI50 [48] was 3.65 µM, the TGI [48] was > 100 µM and the GI50 [49] was 2.09 µM. For the same compound, the TGI [49] was > 74.3 µM, the GI50 [50] was 2.62 µM and the TGI [50] was > 100 µM. For the same compound, the GI50 [51] was 2.99 µM, the TGI [51] was 20.7 µM and the GI50 [52] was < 0.0181 µM. For the same compound, the TGI [52] was > 100 µM, the GI50 [53] was 0.0267 µM and the TGI [53] was > 100 µM. For the same compound, the GI50 [54] was 4.65 µM, the TGI [54] was > 100 µM and the GI50 [55] was 10.6 µM. For the same compound, the TGI [55] was > 100 µM, the GI50 [56] was 2.85 µM and the TGI [56] was 17.4 µM. For the same compound, the GI50 [57] was 0.646 µM and the TGI [57] was > 100 µM.
